In article PMC6940986, “Structural Insights into the Intracellular Region of the Human Magnesium Transport Mediator CNNM4” (International Journal of Molecular Sciences, 2019) one finds KD data, which are given here for one compound.

Molecules are shown by their SMILES.

In the assay the target is T1, hCNNM4BAT (CNNM4BAT) (Homo sapiens, UniProt Q6P4Q7).
T1 construct: gene CNNM4; Bateman module (CBS1-CBS2) with helix H0; for NMR U-15N, N-terminal His6-V5-TEV site tag (pET151-D/TOPO), tag cleavage not described; E. coli BL21 CodonPlus; homodimer (CBS module)
The assay is described as follows: 2D […]-HSQC NMR titration; 1H STD NMR. The format is binding. Particulars: estimated; no Mg2+ added; 100 mM HEPES, pH 7.4 preset (7.2 in results), 100 mM NaCl, 298 K; 100 uM protein.

T1 sequence (Q6P4Q7 359-511): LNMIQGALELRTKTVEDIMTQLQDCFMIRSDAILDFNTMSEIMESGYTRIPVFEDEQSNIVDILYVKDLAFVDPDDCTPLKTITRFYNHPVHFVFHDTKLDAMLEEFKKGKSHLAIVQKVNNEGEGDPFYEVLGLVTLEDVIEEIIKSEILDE

Consider `Nc1ncnc2c1ncn2[C@@H]1O[C@H](COP(=O)(O)OP(=O)(O)NP(=O)(O)O)[C@@H](O)[C@H]1O` [ADPNP], for which the KD is ~ 10^−2 to 10^−3 M.
